According to patent US20060241123A1, “Substituted piperidine and piperazine derivatives as melanocortin-4 receptor modulators” (priority 2003, published 2006):
Where two headings read alike, the source gives them in different places.

What was measured:
hMC4-R [1] = target: T1, hMC4-R (Homo sapiens, UniProt P32245); experiment: Functional cellular cAMP assay, fluorescence polarization, HEK293 cells; type: cell-based; conditions: for EC50: cAMP production; for % activation functional assay: compared to stimulation with NDP-alpha-MSH
T1 construct: expressed in transfected cells; host or cells: HEK293 cells
Protocol: A functional cellular assay, based on competition between unlabeled CAMP and a fixed quantity of fluorescence labeled cAMP for a limited number of binding sites on a cAMP specific antibody, is used to discriminate melanocortin receptor agonists from antagonists by fluorescence polarization.
HEK293 cells expressing one of the human melanocortin receptors are transferred to 384 well microtiter plates, an appropriate amount of cAMP antibody is added, followed by the addition of different concentrations of the test compound to effect cAMP production. Cells are lysed and a fluorescence labeled cAMP conjugate is dispensed. The plate is read on a fluorescence polarization microplate reader and the amount of cAMP produced as a response to a test compound is compared to the production of cAMP resulting from stimulation with NDP-alpha-MSH. […]

melanocortin-4 receptor [2] = target: T2, melanocortin-4 receptor (Homo sapiens, UniProt P32245); conditions: cited from earlier work; for % stimulation: Bioorg. Med. Chem. Lett. 2003, 13, 3793-3796
male Wistar rats [3] = experiment: Spontaneous feeding paradigm, food intake in rats; type: in vivo, rat; conditions: for increase in cumulative food intake: compared to vehicle
Protocol: Food intake in rats is measured after i.p. or p.o. administration of the test compound (see e.g. Chen, A. S. et al. Transgenic Res 2000 April; 9(2):145-54).
Selected Examples of the present invention were active in the rat model at 3, 10 or 30 mg/kg after i.p. and p.o. administration of the test compound, respectively, using male Wistar rats (n=4−6).

hMC4-R [4] = target: T1, hMC4-R; experiment: Membrane binding assay, fluorescence polarization, fluorescence labeled NDP-alpha-MSH; conditions: HEK293 cell membrane preparations
Protocol: A membrane binding assay is used to identify competitive inhibitors of fluorescence labeled NDP-alpha-MSH binding to HEK293 cell membrane preparations expressing human melanocortin receptors.
The test compound or unlabeled NDP-alpha-MSH is dispensed at varying concentrations to a 384 well microtiter plate. Fluorescence labeled NDP-alpha-MSH is dispensed at a single concentration, followed by addition of membrane preparations. The plate is incubated for 5 h at room temperature.
The degree of fluorescence polarization is determined with a fluorescence polarization microplate reader.

melanocortin-4 receptor [5] = target: T2, melanocortin-4 receptor; conditions: cited from earlier work
male Wistar rats [6] = experiment: Lipopolysaccharide-induced cachexia in rats (acute model); type: in vivo, rat
Protocol: Prevention or amelioration of cachexia induced by either lipopolysaccharide (LPS) administration or by tumor growth is determined upon i.p. or p.o. administration of test compounds to rats (see e.g. Marks, D. L.; Ling, N and Cone, R. D. Cancer Res 2001 Feb. 15; 61 (4): 1432-8).
1-2 Hours prior to the onset of the dark-phase, individually housed, male Wistar rats (200-300 g) receive an ip or po application of test-compound or vehicle (2 ml/kg, 1-30 mg/kg) which is followed or preceded by an ip injection of either lipopolysaccharide (LPS) or saline (2 ml/kg, 100 μg/kg). Food intake, water intake and body weight are measured at 1-24 hour intervals and differences between experimental groups are evaluated.

rat = conditions: i.v. or p.o.; WO0074679; cited from earlier work
[7] = J. Med. Chem. 2002, 45, 4589-4593; cited from earlier work
[8] = read-out: EC50 activation of melanocortin-4 receptor, our assay system
[9] = 3 mg/kg p.o., 4 hours following administration
[10] = 3 mg/kg p.o., 6 hours following administration
[11] = 3 mg/kg p.o., 7 hours following administration

T2 sequence (P32245 whole entry): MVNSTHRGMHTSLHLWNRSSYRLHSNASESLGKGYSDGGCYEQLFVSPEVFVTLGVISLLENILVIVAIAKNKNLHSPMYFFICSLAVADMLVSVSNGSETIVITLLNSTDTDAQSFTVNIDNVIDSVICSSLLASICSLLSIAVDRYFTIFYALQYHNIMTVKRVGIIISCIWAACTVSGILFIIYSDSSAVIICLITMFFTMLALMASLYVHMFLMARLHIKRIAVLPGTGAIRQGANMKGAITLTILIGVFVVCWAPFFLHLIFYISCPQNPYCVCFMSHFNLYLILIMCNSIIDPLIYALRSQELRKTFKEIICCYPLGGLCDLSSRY
T1 sequence (P32245 whole entry): as above

For `CS(=O)(=O)Nc1ccccc1N1CCN(C(=O)[C@@H](Cc2ccc(Cl)cc2)NC(=O)[C@H]2Cc3ccccc3CN2)CC1` [WO03009850, example 1, reference compound], the EC50 (hMC4-R [1]; [8]) is given as 3700 nM, the “% activation functional assay” value (hMC4-R [1]) is given as 96% and the “% stimulation” value (melanocortin-4 receptor [2]) is given as 100%.
In the case of `CS(=O)(=O)N1CC2(CCN(C(=O)C[C@@H](Cc3ccc(Cl)cc3)NC(=O)[C@H]3Cc4ccccc4CN3)CC2)c2ccccc21.Cl` [Example 212], the “increase in cumulative food intake” value (male Wistar rats [3]; 10 mg/kg i.p., 2 hours following administration) is reported as 708%, the “increase in cumulative food intake” value (male Wistar rats [3]; 10 mg/kg i.p., 4 hours following administration) is reported as 725% and the “increase in cumulative food intake” value (male Wistar rats [3]; 10 mg/kg i.p., 6 hours following administration) is reported as 224%. The “increase in cumulative food intake” value (male Wistar rats [3]; 10 mg/kg i.p., 8 hours following administration) was 167%.
With `CS(=O)(=O)NCc1ccccc1N1CCN(C(=O)[C@@H](Cc2ccc(Cl)cc2)NC(=O)c2cc(=O)c3ccccc3o2)CC1` [Example 110] the IC50 (hMC4-R [4]) was 790 nM, the “activation of the melanocortin-4 receptor in the functional assay” value (“activation … in the functional assay” below) (hMC4-R [1]) was “does not activate” and the “% activation functional assay” value (hMC4-R [1]) was “no activation”.
In the case of `CS(=O)(=O)NCc1ccccc1N1CCN(C(=O)C(Cc2ccc(Cl)cc2)NC(=O)C2Cc3ccccc3CN2)CC1` (stereo not drawn) [WO02059108, example 56], the Ki (melanocortin-4 receptor [5]; J. Med. Chem. 2004, 47, 744-755) is given as 210 nM and the EC50 (melanocortin-4 receptor [2]; J. Med. Chem. 2004, 47, 744-755, read-out: EC50 activation of melanocortin-4 receptor) is given as 48 nM.
For `CS(=O)(=O)N1CC2(CCN(C(=O)[C@@H](Cc3ccc(Cl)cc3)NC(=O)c3cc(=O)c4ccccc4o3)CC2)c2ccccc21` [Example 1], the IC50 (hMC4-R [4]) was 80 nM, the “activation … in the functional assay” value (hMC4-R [1]) was “does not activate” and the “% activation functional assay” value (hMC4-R [1]) was “no activation”.
In the case of `CC(C)(C)NC(=O)C1(C2CCCCC2)CCN(C(=O)[C@@H](Cc2ccc(Cl)cc2)NC(=O)c2cc(=O)c3ccccc3o2)CC1` [Example 66], the IC50 (hMC4-R [4]) is reported as 6.8 nM, the “activation … in the functional assay” value (hMC4-R [1]) is reported as “no activation” and the “% activation functional assay” value (hMC4-R [1]) is reported as “no activation”. The “food intake in spontaneous feeding paradigm” value (male Wistar rats [3]; 3 mg/kg p.o.) was “significant increase in food intake”, the “increase in cumulative food intake” value (male Wistar rats [3]; 3 mg/kg p.o., 2 hours following administration) was 410% and the “increase in cumulative food intake” value (male Wistar rats [3]; [9]) was 500%. The “increase in cumulative food intake” value (male Wistar rats [3]; [10]) was 186%, the “increase in cumulative food intake” value (male Wistar rats [3]; [11]) was 272% and the “cumulative food intake in LPS-induced cachexia” value (male Wistar rats [6]; 10 mg/kg p.o.) was “significant increase in cumulative food intake”. For the same compound, the “increase in cumulative food intake” value (male Wistar rats [6]; 10 mg/kg p.o. in combination with LPS, 4 hours following administration, compared to LPS and vehicle) was 148%.
With `CS(=O)(=O)Nc1ccccc1N1CCN(C(=O)[C@@H](Cc2ccc(Cl)cc2)NC(=O)c2cc(=O)c3ccccc3o2)CC1` [Example 8] the IC50 (hMC4-R [4]) was 300 nM, the “activation … in the functional assay” value (hMC4-R [1]) was “does not activate” and the “% activation functional assay” value (hMC4-R [1]) was “no activation”.
In the case of `O=C(NC(Cc1ccc(Cl)cc1)C(=O)N1CCC(Cn2cncn2)(C2CCCCC2)CC1)C1Cc2ccccc2CN1` (stereo not drawn) [WO0074679, example 2], the “% activation functional assay” value (hMC4-R [1]) is given as 102%, the “melanocortin-4 receptor activation” value (melanocortin-4 receptor [2]; at 10 μM, J. Med. Chem. 2002, 45, 4589-4593) is given as “activate the melanocortin-4 receptor” and the “in vivo activity in reflexogenic erections model” value (rat) is given as “in vivo agonist”. For the same compound, the “food intake” value [7] was “significantly reduced”.
For `CS(=O)(=O)N1CC2(CCN(C(=O)[C@@H](Cc3ccc(Cl)cc3)NC(=O)[C@H]3Cc4ccccc4CN3)CC2)c2ccccc21` [WO9964002, example 13, reference compound], the IC50 (hMC4-R [4]) was 54 nM, the EC50 (hMC4-R [1]; [8]) was 1100 nM and the “% activation functional assay” value (hMC4-R [1]) was 110%. For the same compound, the Ki (melanocortin-4 receptor [5]; Current Topics Med. Chem. 2003, 3, 855-883) was 10 nM and the “% stimulation” value (melanocortin-4 receptor [2]) was 100%.
In the case of `O=C(N[C@H](Cc1ccc(Cl)cc1)C(=O)N1CCN(c2ccccc2C(=O)N2CCCCC2)CC1)c1cc(=O)c2ccccc2o1` [Example 113], the “increase in cumulative food intake” value (male Wistar rats [3]; 30 mg/kg p.o., 2 hours following administration) is reported as 192%, the “increase in cumulative food intake” value (male Wistar rats [3]; 30 mg/kg p.o., 4 hours following administration) is reported as 159% and the “increase in cumulative food intake” value (male Wistar rats [3]; 30 mg/kg p.o., 6 hours following administration) is reported as 191%. The “increase in cumulative food intake” value (male Wistar rats [3]; 30 mg/kg p.o., 7 hours following administration) was 200%.
With `O=C(N[C@H](Cc1ccc(Cl)cc1)C(=O)N1CCC(Cn2cncn2)(C2CCCCC2)CC1)c1cc(=O)c2ccccc2o1` [Example 15] the IC50 (hMC4-R [4]) was 4.4 nM, the EC50 (hMC4-R [1]; read-out: hMC4-R functional assay EC50/nM) was 700 nM and the “% activation functional assay” value (hMC4-R [1]) was 40%. The “food intake in spontaneous feeding paradigm” value (male Wistar rats [3]; 3 mg/kg p.o.) was “significantly increase in food intake”, the “increase in cumulative food intake” value (male Wistar rats [3]; [9]) was 290% and the “increase in cumulative food intake” value (male Wistar rats [3]; [10]) was 186%. For the same compound, the “increase in cumulative food intake” value (male Wistar rats [3]; [11]) was 355%.
